Measurements published in patent publication US20090239877A1, “NOVEL 1,2,4-TRIAZOLE DERIVATIVES AND PROCESS OF MANUFACTURING THEREOF” (AETERNA ZENTARIS GmbH, priority 2008, published 2009).

Assays:
human GHS-R 1a [1] = target: T1, human GHS-R 1a (Homo sapiens, UniProt Q92847); assay: GHS-R 1a receptor-ligand binding assay (membrane preparations from transfected LLC PK-1 cells); parameters: expressed in transfected cells; details: displacement of 125I-His9-ghrelin; plasma membranes of LLC PK-1 cells transiently transfected with human GHS-R 1a; mean of at least two independent experiments in triplicates
T1 sequence (Q92847 whole entry): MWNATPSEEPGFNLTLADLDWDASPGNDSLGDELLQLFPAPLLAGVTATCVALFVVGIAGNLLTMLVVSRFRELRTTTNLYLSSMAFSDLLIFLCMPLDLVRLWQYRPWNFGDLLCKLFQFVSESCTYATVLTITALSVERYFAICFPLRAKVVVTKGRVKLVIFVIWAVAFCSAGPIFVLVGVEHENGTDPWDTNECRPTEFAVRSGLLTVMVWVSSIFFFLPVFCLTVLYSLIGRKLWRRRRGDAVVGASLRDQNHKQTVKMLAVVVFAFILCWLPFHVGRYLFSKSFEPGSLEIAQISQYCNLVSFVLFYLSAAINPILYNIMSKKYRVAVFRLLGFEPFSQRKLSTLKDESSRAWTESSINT
Experimental: II) GHS-R 1a Receptor-Ligand Binding Assay (Membrane Preparations from Transfected LLC PK-1 Cells)
The GHS-R 1a receptor binding/affinity studies were performed according to Guerlavais et al. (J. Med. Chem. 2003, 46: 1191-1203).
Isolated plasma membranes from LLC PK-1 cells, a renal epithelial cell line originally derived from porcine kidneys (ECACC No. 86121112) (10 μg of protein), that were transiently transfected with human GHS-R 1a cDNA (Guerlavais et al., J. Med. Chem. 2003, 46: 1191-1203), were incubated in homogenization buffer HB [50 mM Tris (pH 7.3), 5 mM MgCl2, 2.5 mM EDTA, and 30 μg/mL bacitracin (Sigma)] for 60 min at 25° C. (steady-state conditions) with […] ^125I-His^9-ghrelin (Amersham) in the presence or absence of competing compounds (compounds of the invention).
Nonspecific binding was defined using an excess (10^−6 M) of ghrelin. The binding reaction was stopped by addition of 4 mL of ice-cold HB followed by rapid filtration over Whatman GP/C filters presoaked with 0.5% polyethyleneimine to prevent excessive binding of radioligand to the filters. Filters were rinsed three times with 3 mL of icecold wash buffer [50 mM Tris (pH 7.3), 10 mM MgCl2, 2.5 mM EDTA, and 0.015% (w/v) X-100 Triton], and the radioactivity bound to membranes was measured in a gammacounter (Kontron Analytical Gamma Matic, Automatic gamma counting system).
The concentration of test compounds required to inhibit radiolabelled ghrelin binding by 50% (IC50) was determined by fitting competitive binding curves using non-linear regression (PRISM 3.0, Graph Pad San Diego, USA).
In the following table 2 results obtained for selected compounds of the invention are presented in comparison to an example of the prior art. IC50 values given are the mean of at least two independent experiments performed in triplicates.

human GHS-R 1a [2] = target: T1, human GHS-R 1a; assay: In vitro intracellular calcium release assay using human GHS-R 1a transfected CHO cells; format: cell-based; parameters: expressed in transfected cells; host or cells: CHO-K1 Chinese hamster ovary cells (ATCC No. CCL-61), transient transfection by electroporation; details: for activation at 1 µM: intracellular calcium release, compound at 10^-6 M, relative to basal level (0%) and 1 μM ghrelin (100%); for EC50: agonists, dose-response curve of intracellular calcium release
Experimental: The ability to properly activate the receptors is assessed for any compound of the invention by comparing the degree of activation (increase of intracellular calcium) of GHS-R 1a by the compound to be tested (at 10^−6 M concentration) to the degree of activation (increase of intracellular calcium) of GHS-R 1a by 10^−6 M ghrelin (100%) and to the basal level (0%). Such assessment can be readily performed by the skilled artisan due to his expert knowledge. The output is a percentage value for each compound to be tested. […]
III) In Vitro Intracellular Calcium Release Assay Using Human GHS-R 1a Transfected CHO Cells
The potential of the compounds of the invention to modulate GHS receptor activity was assessed by an in vitro intracellular Calcium release assay employing CHO cells that were transfected with human GHS-R 1a.
Release of intracellular calcium or inhibition thereof was measured using the fluorescent calcium indicator assay (FLIPR) and Fluo-4 AM.
CHO cells (CHO-KI Chinese Hamster Ovary cell line, ATCC No. CCL-61) were transiently transfected with human GHS-R 1a cDNA by electroporation and plated into 96-well black bottom plates (Corning 3603) (80,000 cells/well). Transient transfections were performed using the Easyject Optima Electroporator (Equibio), according to the manufacturer's instructions.
Transfected cells were grown in Dulbecco's modified Eagle's medium without phenol red, supplemented with 10% (v/v) non-essential amino acids, […] glutamine and streptomycin-penicillin (250 μg/ml-250 u/ml) (all purchased from Cambrex) at 37° C., 5% CO2 in a humidified atmosphere for 24 hours.
After incubation, transfected cells were washed with 150 μl Buffer A [Hanks' balanced salt solution (Sigma H-6648), 0.5% (v/v) BSA (Sigma A-7906), 20 mM CaCl2, 2.5 mM probenecid (pH 7.4, dissolved in 1 M NaOH) (Sigma P-8761)] and were then loaded with fluorescent calcium indicator Fluo-4 AM (10^−6 M) (Interchim UP72972) prepared in Buffer A, additionally containing 0.06% pluronic acid (Molecular probes P-6867) (a […] detergent which facilitates Fluo-4AM ester loading). (Loading: 100 μl per well of Buffer A containing 120 μl/ml Pluronic Acid and 1 μM Fluo-4AM was added to the cells).
After loading with Fluo-4 AM, transfected cells were incubated for 1 hour in the dark at 37° C.
Compounds to be tested were dissolved in Buffer A in triplicates at a concentration of 10^−6 M and distributed into another 96-well plate (Fisher Labosi A1210500).
Following incubation, excess Fluo-4AM was removed, 100 μl of Buffer A was added to each well at room temperature and immediately removed by aspiration. This was then repeated, before adding 50 μl Buffer A to each well.
Transfected cells were further incubated room temperature for 30 min to allow complete de-esterification of intracellular Fluo-4AM esters.
Subsequently, both plates, the black-bottom plate containing transfected cells and the microtiter plate containing the compounds to be tested, were then placed into a temperature-regulated (25° C.) FlexStation machine (benchtop scanning fluorometer Flex Station II, Molecular Devices, Sunnyvale, Calif., USA) for fluorescence output measurements.
Basal fluorescence output from the transfected cells was measured for 15 sec and then 50 μl of the compounds to be tested were automatically distributed into the wells containing the transfected cells. The fluorescence output was then recorded for a further 45 sec.
Excitation and emission wavelengths were 485 nm and 525 nm, respectively. Basal fluorescence intensity of Fluo-4AM-loaded transfected cells without compounds to be tested varied between 800-1200 arbitrary units, whereas maximal fluorescence output of dye-loaded transfected cells upon incubation with the compounds to be tested varied between 5000-7000 arbitrary units and was equivalent to that achieved by stimulation of dye-loaded transfected cells with 10^−6 M ghrelin. […]

IC50 (human GHS-R 1a [1]) | activation at 1 µM (human GHS-R 1a [2]) | EC50 (human GHS-R 1a [2]) | SMILES
380 nM | 47% | – | COc1cccc(Cn2c(CCCc3ccccc3)nnc2[C@@H](Cc2c[nH]c3ccccc23)NC(=O)C(C)(C)N)c1 [Compound 1, N-((R)-1-(4-(3-methoxybenzyl)-5-(3-phenylpropyl)-4H-1,2,4-triazol-3-yl)-2-(1H-indol-3-yl)ethyl)-2-amino-2-methylpropanamide]
143 nM | 40% | 17 nM | COc1ccc(Cn2c(CCc3ccccc3)nnc2[C@@H](Cc2c[nH]c3ccccc23)NC(=O)[C@H]2CNCCN2)cc1 [Compound 2, (2R)-N-((R)-1-(4-(4-methoxybenzyl)-5-phenethyl-4H-1,2,4-triazol-3-yl)-2-(1H-indol-3-yl)ethyl)piperazine-2-carboxamide]
16 nM | 106% | 4.4 nM | COc1ccc(Cn2c(CCc3cc4ccccc4[nH]3)nnc2[C@@H](Cc2c[nH]c3ccccc23)NC(=O)C2(N)CCNCC2)cc1 [Compound 3, N-((R)-1-(5-(2-(1H-indol-2-yl)ethyl)-4-(4-methoxybenzyl)-4H-1,2,4-triazol-3-yl)-2-(1H-indol-3-yl)ethyl)-4-aminopiperidine-4-carboxamide]
6.6 nM | 90% | 4.1 nM | COc1ccc(Cn2c(CCc3ccccc3)nnc2[C@@H](Cc2c[nH]c3ccccc23)NC(=O)C2(N)CCNCC2)cc1 [Compound 4, N-((R)-1-(4-(4-methoxybenzyl)-5-phenethyl-4H-1,2,4-triazol-3-yl)-2-(1H-indol-3-yl)ethyl)-4-aminopiperidine-4-carboxamide]
11.8 nM | 31% | 16 nM | COc1ccc(Cn2c(CCc3ccccc3)nnc2[C@@H](Cc2c[nH]c3ccccc23)NC(=O)c2ccccc2)c(OC)c1 [Compound 5, N-((R)-1-(4-(2,4-dimethoxybenzyl)-5-phenethyl-4H-1,2,4-triazol-3-yl)-2-(1H-indol-3-yl)ethyl)benzamide]
204 nM | 4% | – | COc1ccc(Cn2c(CCc3ccccc3)nnc2[C@@H](Cc2c[nH]c3ccccc23)NC(=O)c2cccc(CN)c2)c(OC)c1 [Compound 6, N-((R)-1-(4-(2,4-dimethoxybenzyl)-5-phenethyl-4H-1,2,4-triazol-3-yl)-2-(1H-indol-3-yl)ethyl)-3-(amino-methyl)benzamide]
1.3 nM | 100% | 2 nM | COc1ccc(Cn2c(CCc3ccccc3)nnc2[C@@H](Cc2c[nH]c3ccccc23)NC(=O)C2(N)CCNCC2)c(OC)c1 [Compound 10, N-((R)-1-(4-(2,4-dimethoxybenzyl)-5-phenethyl-4H-1,2,4-triazol-3-yl)-2-(1H-indol-3-yl)ethyl)-4-aminopiperidine-4-carboxamide]
11.1 nM | 70% | 2.5 nM | COc1ccc(Cn2c(CCc3c[nH]c4ccccc34)nnc2[C@@H](Cc2c[nH]c3ccccc23)NC(=O)c2cccc(CN)c2)cc1 [Compound 13, N-((R)-1-(5-(2-(1H-indol-3-yl)ethyl)-4-(4-methoxybenzyl)-4H-1,2,4-triazol-3-yl)-2-(1H-indol-3-yl)ethyl)-3-(amino-methyl)benzamide]
17 nM | 120% | 2 nM | O=C(N[C@H](Cc1c[nH]c2ccccc12)c1nnc(CCc2ccccc2)n1Cc1cccc2ccccc12)C1CCNCC1 [Compound 15, N-((R)-2-(1H-indol-3-yl)-1-(4-((naphthalen-1-yl)methyl)-5-phenethyl-4H-1,2,4-triazol-3-yl)ethyl)piperidine-4-carboxamide]
4 nM | 94% | 2.4 nM | O=C(N[C@H](Cc1c[nH]c2ccccc12)c1nnc(CCc2c[nH]c3ccccc23)n1Cc1cccc2ccccc12)C1CCNCC1 [Compound 17, N-((R)-1-(5-(2-(1H-indol-3-yl)ethyl)-4-((naphthalen-1-yl)methyl)-4H-1,2,4-triazol-3-yl)-2-(1H-indol-3-yl)ethyl)piperidine-4-carboxamide]
5.3 nM | 1% | – | O=C(N[C@H](Cc1c[nH]c2ccccc12)c1nnc(CCc2c[nH]c3ccccc23)n1Cc1cccc2ccccc12)c1ccccn1 [Compound 18, N-((R)-1-(5-(2-(1H-indol-3-yl)ethyl)-4-((naphthalen-1-yl)methyl)-4H-1,2,4-triazol-3-yl)-2-(1H-indol-3-yl)ethyl)picolinamide]
180 nM | 80% | 0.6 nM | O=C(N[C@H](Cc1c[nH]c2ccccc12)c1nnc(CCc2c[nH]c3ccccc23)n1Cc1cccc2ccccc12)C1CCOCC1 [Compound 20, N-((R)-1-(5-(2-(1H-indol-3-yl)ethyl)-4-((naphthalen-1-yl)methyl)-4H-1,2,4-triazol-3-yl)-2-(1H-indol-3-yl)ethyl)-tetrahydro-2H-pyran-4-carboxamide]
40 nM | 150% | 1.6 nM | O=C(N[C@H](Cc1c[nH]c2ccccc12)c1nnc(CCCc2c[nH]c3ccccc23)n1Cc1ccccc1)C1CCNCC1 [Compound 22, N-((R)-1-(5-(3-(1H-indol-3-yl)propyl)-4-benzyl-4H-1,2,4-triazol-3-yl)-2-(1H-indol-3-yl)ethyl)piperidine-4-carboxamide]
– | 60% | 17 nM | O=C(N[C@H](Cc1c[nH]c2ccccc12)c1nnc(Cc2ccccc2)n1Cc1ccc(Cl)c(Cl)c1)[C@@H]1CCCN1 [Compound 35, (2S)-N-((R)-1-(4-(3,4-dichlorobenzyl)-5-benzyl-4H-1,2,4-triazol-3-yl)-2-(1H-indol-3-yl)ethyl)pyrrolidine-2-carboxamide]
18.8 nM | – | – | COc1ccc(Cn2c(CCc3ccccc3)nnc2[C@@H](Cc2cccc3ccccc23)NC(=O)C2CCCN2)cc1 (stereo partly drawn) [Compound 80, N-((R)-1-(4-(4-methoxybenzyl)-5-phenethyl-4H-1,2,4-triazol-3-yl)-2-(naphthalen-1-yl)ethyl)pyrrolidine-2-carboxamide]
